Results on 13 compounds are retold here after paper PMC8151276, “An Integrated Approach toward NanoBRET Tracers for Analysis of GPCR Ligand Engagement” (Molecules, 2021).

Holding throughout (type): binding
Assay [1] addresses T1, NPSR1 (Homo sapiens, UniProt Q6W5P4).
T1 construct: purchased Promega (in-house HiBiT-GPCR construct library, NanoBRET)
T1 sequence (Q6W5P4 1-371): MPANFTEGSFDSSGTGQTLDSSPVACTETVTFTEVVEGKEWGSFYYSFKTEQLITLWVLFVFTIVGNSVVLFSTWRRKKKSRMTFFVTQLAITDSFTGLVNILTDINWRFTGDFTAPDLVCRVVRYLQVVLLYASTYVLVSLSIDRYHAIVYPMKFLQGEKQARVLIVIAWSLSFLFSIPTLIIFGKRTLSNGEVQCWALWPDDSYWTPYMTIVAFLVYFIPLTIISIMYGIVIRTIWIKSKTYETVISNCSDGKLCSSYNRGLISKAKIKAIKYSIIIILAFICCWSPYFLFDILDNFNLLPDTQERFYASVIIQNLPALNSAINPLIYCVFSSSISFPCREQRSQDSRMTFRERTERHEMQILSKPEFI
Briefly: NanoBRET screen HiBiT-NPSR1 in HEK293. How it is done:
(§1) Each tracer candidate was screened across the entire library of HiBiT-GPCR constructs using NanoBRET as the detection modality. As depicted in Figure 4A, the specificity of interactions was evaluated through decrease in BRET due to competitive displacement of a bound tracer by excess parental compound. Each tracer was analyzed for binding to each HiBiT-GPCR fusion in the absence and in the presence of competing parental compound. Briefly, HEK293 cells were transfected with HiBiT-GPCR constructs diluted into promoterless DNA to reduce expression and maximize translocation to the cell surface. Each tracer candidate was then screened at concentrations of 1 μM and 0.1 μM across cells expressing these fusions. Cells were treated for 1.5 h with tracer either alone or in the presence of 20 μM competing parental compound (i.e., control). BRET was measured upon addition of purified LgBiT and subsequent complementation with HiBiT genetically fused to a GPCR. The specificity of interactions was assessed through a decrease in BRET signal due to competitive displacement of the bound tracer. To further gauge the robustness of these interactions, the fold response over the control (i.e., BRETtracer/BRETcontrol) was calculated. We chose a 1.5-fold response, which translates to ≥7-fold signal over noise as the minimal threshold required to score an interaction as positive.
(§2) HiBiT-GPCR DNA constructs were diluted in 10 mM Tris pH 8 to a final concentration of 0.01 μg/μL, arrayed in 96-well plates and stored at −20 °C. For transfection, HEK293 cells were suspended in Opti-MEM (without phenol red) supplemented with 2% fetal bovine serum (Seradigm) and 100 units/mL penicillin–streptomycin (Gibco) at a final concentration of 220,000 cells/mL and dispensed into white 96-well plates at 90 μL/well. Subsequent transfections and screens were carried using an Agilent Bravo Automated Liquid Handling Platform. First, the 96-well HiBiT DNA arrays were diluted 25-fold in Opti-MEM (without serum or phenol red) to a final concentration of 0.0004 μg/μL and 20 μL of the diluted DNAs were transferred into new 96-well plates. Next, promoterless carrier DNA (1 μg/μL) was diluted 25-fold (0.04 μg/μL) and then dispensed into the diluted arrays at 20 μL/well. Following brief mixing, Viafect transfection reagent (Promega) diluted 16-fold into Opti-MEM was dispensed into the plates at 40 μL/well. After mixing by pipetting, plates were incubated for 10 min on the pipetting station deck. The DNA-transfection reagent complexes were then added to plates containing cells. To facilitate the screen, 10 μL of DNA-transfection reagent complexes were added in duplicates to the top 4 and bottom 4 rows, resulting in two identical 48-well arrays per plate. Plates with transfected cells were incubated for 18–20 h at 37 °C/5% CO2. A screen of each tracer across the entire library using two different concentrations requires duplicate plates of transfected cells. Depending on the number of tracers being screened, transfections can be scaled up using the same ratios. The next day, for each tracer, four 20× screening solutions in tracer dilution buffer (Promega) were prepared: two duplicates at final concentration of 20 μM and two duplicates at a final concentration of 2 μM. […] The four resulting solutions were diluted 4-fold in Opti-MEM without serum or phenol red to generate 5× solutions (5 µM and 0.5 µM tracer +/− 100 μM competing compound). To screen the library, a BioTek MultiFlo FX liquid dispenser was used to dispense 22.5 µL of tracer solution to the top 4 rows and 22.5 µL tracer + competing compound solution to the 4 bottom rows. Plates were briefly mixed on an orbital shaker and incubated for 1.5 h at room temperature. […] Plates were briefly mixed on an orbital shaker and incubated for 15 min to allow complementation.
(Bioluminescence resonance energy transfer reports proximity on the nanometre scale.)

The target in assay [2] is T2, CHRM5 (Homo sapiens, UniProt P08912).
T2 construct: purchased Promega (in-house HiBiT-GPCR construct library, NanoBRET)
T2 sequence (P08912 1-532): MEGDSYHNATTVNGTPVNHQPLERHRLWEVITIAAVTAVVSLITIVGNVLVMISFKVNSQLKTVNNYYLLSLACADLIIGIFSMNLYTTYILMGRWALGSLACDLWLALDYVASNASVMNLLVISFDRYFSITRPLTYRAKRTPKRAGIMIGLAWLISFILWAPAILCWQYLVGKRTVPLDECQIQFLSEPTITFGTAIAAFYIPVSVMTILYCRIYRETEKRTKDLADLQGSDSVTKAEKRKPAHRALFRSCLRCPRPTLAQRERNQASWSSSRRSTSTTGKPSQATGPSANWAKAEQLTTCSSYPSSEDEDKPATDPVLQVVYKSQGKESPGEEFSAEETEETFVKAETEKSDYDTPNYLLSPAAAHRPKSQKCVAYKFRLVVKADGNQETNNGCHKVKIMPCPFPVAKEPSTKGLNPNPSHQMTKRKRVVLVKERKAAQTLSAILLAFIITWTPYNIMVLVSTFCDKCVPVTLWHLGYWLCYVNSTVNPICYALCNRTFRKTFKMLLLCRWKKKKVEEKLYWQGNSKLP
Briefly: NanoBRET screen HiBiT-CHRM5 in HEK293. As to the method:
as §1, §2

For assay [3], the target named is T3, DRD3 (Homo sapiens, UniProt P35462).
T3 construct: purchased Promega (in-house HiBiT-GPCR construct library, NanoBRET)
T3 sequence (P35462 whole entry): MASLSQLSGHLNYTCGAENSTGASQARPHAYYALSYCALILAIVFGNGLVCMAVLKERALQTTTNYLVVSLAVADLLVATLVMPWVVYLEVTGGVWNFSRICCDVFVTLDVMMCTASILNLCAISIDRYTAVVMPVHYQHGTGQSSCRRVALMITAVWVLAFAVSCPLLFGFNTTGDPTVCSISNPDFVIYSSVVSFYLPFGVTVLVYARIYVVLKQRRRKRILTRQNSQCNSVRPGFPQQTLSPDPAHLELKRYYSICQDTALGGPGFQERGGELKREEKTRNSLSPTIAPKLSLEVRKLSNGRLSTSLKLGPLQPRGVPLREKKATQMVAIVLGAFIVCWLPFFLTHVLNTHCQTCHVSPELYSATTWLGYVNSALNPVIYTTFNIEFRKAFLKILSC
The assay can be described thus: NanoBRET screen HiBiT-DRD3 in HEK293. How it is done: as §1, §2

SMILES strings stand for the structures.

For the compound `O=C(CCOCCOCCOCCOCCNC(=O)CCc1ccc2n1[B-](F)(F)[N+]1=C(c3ccc[nH]3)C=CC1=C2)NCCCN1CCN(C2=Nc3ccccc3Oc3ccc(Cl)cc32)CC1` [Loxapine-a-2-NB590], the “NanoBRET Fold Response” value in assay [1] (NPSR1, tracer 0.1μM) turned out to be 0.98; in assay [1] (NPSR1, tracer 1μM) it was 1.04; in assay [2] (CHRM5, tracer 0.1μM), 0.99; in assay [2] (CHRM5, tracer 1μM), 0.89.

Take `CCCn1c(=O)c2[nH]c(-c3ccc(OCC(=O)NCCNC(=O)CCOCCNC(=O)c4ccc(CNC(=O)CCc5ccc6n5[B-](F)(F)[N+]5=C(c7ccc[nH]7)C=CC5=C6)cc4)cc3)nc2n(CCC)c1=O` [XAC-3-NB590]: the “NanoBRET Fold Response” value in assay [3] (DRD3, tracer 0.1μM) came to 1.23; in assay [3] (DRD3, tracer 1μM), 0.81; in assay [1] (NPSR1, tracer 0.1μM), 0.90; in assay [1] (NPSR1, tracer 1μM), 0.92; in assay [2] (CHRM5, tracer 0.1μM), 0.98; in assay [2] (CHRM5, tracer 1μM), 0.86.

Regarding `CN(C)CCC=C1c2ccccc2CCc2ccc(C(=O)NCCNC(=O)CCOCCOCCOCCOCCNC(=O)CCc3ccc4n3[B-](F)(F)[N+]3=C(c5ccc[nH]5)C=CC3=C4)cc21` [Amitriptyline-a-2-NB590], the “NanoBRET Fold Response” value in assay [3] (tracer at 0.1μM) is 1.13; in assay [3] (tracer at 1μM), 1.37; in assay [1] (tracer at 0.1μM) it was 1.01; in assay [1] (tracer at 1μM) it was 0.99; in assay [2] (tracer at 1μM), 1.23.

With `COc1ccccc1N1CCN(CCCCN2C(=O)c3ccc(CNC(=O)CCOCCOCCOCCOCCNC(=O)CCc4ccc5n4[B-](F)(F)[N+]4=C(c6ccc[nH]6)C=CC4=C5)cc3C2=O)CC1` [NAN-190-2-NB590], the “NanoBRET Fold Response” value turned out to be 2.36 in assay [3] (DRD3, tracer 0.1μM); 1.69 in assay [3] (DRD3, tracer 1μM); 0.90 in assay [1] (NPSR1, tracer 0.1μM); 0.93 in assay [1] (NPSR1, tracer 1μM); 0.90 in assay [2] (CHRM5, tracer 0.1μM).

Regarding `O=C(CCc1ccc2n1[B-](F)(F)[N+]1=C(c3ccc[nH]3)C=CC1=C2)NCc1ccc(C(=O)NCCOCCOCCNCC(O)COc2cccc3ccccc23)cc1` (stereo not drawn) [Propranolol-3-NB590], the “NanoBRET Fold Response” value amounted to 1.05 in assay [3] (DRD3, 0.1μM); 1.30 in assay [3] (DRD3, 1μM); 1.00 in assay [1] (NPSR1, 0.1μM); 0.98 in assay [1] (NPSR1, 1μM); 1.00 in assay [2] (CHRM5, 0.1μM); 1.03 in assay [2] (CHRM5, 1μM).

Turning to `COc1ccccc1N1CCN(CCCCN2C(=O)c3ccc(CNC(=O)CCOCCNC(=O)c4ccc(CNC(=O)CCc5ccc6n5[B-](F)(F)[N+]5=C(c7ccc[nH]7)C=CC5=C6)cc4)cc3C2=O)CC1` [NAN-190-3-NB590], the “NanoBRET Fold Response” value in assay [3] (DRD3, tracer 0.1μM) amounted to 2.25; in assay [3] (DRD3, tracer 1μM) it was 1.52; in assay [1] (NPSR1, tracer 0.1μM), 1.10; in assay [1] (NPSR1, tracer 1μM), 1.17; in assay [2] (CHRM5, tracer 0.1μM), 1.00; in assay [2] (CHRM5, tracer 1μM) it was 1.24.

With `O=C(CCc1ccc2n1[B-](F)(F)[N+]1=C(c3ccc[nH]3)C=CC1=C2)NCc1ccc(C(=O)NCCOCCC(=O)N[C@@H]2CC[C@@]3(O)[C@H]4Cc5ccc(O)c6c5[C@@]3(CCN4CC3CC3)[C@H]2O6)cc1` [Naltrexone-3-NB590], the “NanoBRET Fold Response” value in assay [3] (DRD3, tracer 0.1μM) is recorded as 0.79; in assay [3] (DRD3, tracer 1μM) it was 1.37; in assay [1] (NPSR1, tracer 0.1μM), 1.12; in assay [1] (NPSR1, tracer 1μM), 0.92; in assay [2] (CHRM5, tracer 0.1μM), 1.18; in assay [2] (CHRM5, tracer 1μM), 0.79.

On to `CCOC(=O)c1cc(C#N)c(N2CCC(C(=O)NS(=O)(=O)Cc3ccccc3/C=C/C(=O)NCCNC(=O)CCc3ccc4n3[B-](F)(F)[N+]3=C(c5ccc[nH]5)C=CC3=C4)CC2)nc1C` [AZD1283-1-NB590], for which the “NanoBRET Fold Response” value in assay [3] (DRD3, 0.1μM) was 0.99; in assay [3] (DRD3, 1μM), 1.01; in assay [1] (NPSR1, 0.1μM), 1.02; in assay [1] (NPSR1, 1μM), 1.06; in assay [2] (CHRM5, 0.1μM), 1.08; in assay [2] (CHRM5, 1μM), 1.08.

With `COc1ccc2[nH]c(-c3ccc(CNC(=O)CCOCCOCCOCCOCCNC(=O)CCc4ccc5n4[B-](F)(F)[N+]4=C(c6ccc[nH]6)C=CC4=C5)cc3)c(CCNC(C)=O)c2n1` [AzomelatoninICO9-2-NB590], the “NanoBRET Fold Response” value in assay [3] (0.1μM tracer) is on record as 0.93; in assay [3] (1μM tracer) it was 1.05; in assay [1] (0.1μM tracer), 0.98; in assay [1] (1μM tracer) it was 0.96; in assay [2] (0.1μM tracer), 0.90; in assay [2] (1μM tracer) it was 0.97.

Take `CC(C)N(CC[C@H](c1ccccc1)c1cc(CCNC(=O)CCOCCOCCOCCOCCNC(=O)CCc2ccc3n2[B-](F)(F)[N+]2=C(c4ccc[nH]4)C=CC2=C3)ccc1O)C(C)C` [Tolterodine-2-NB590]: the “NanoBRET Fold Response” value was 0.97 in assay [3] (DRD3, tracer 0.1μM); 0.98 in assay [3] (DRD3, tracer 1μM); 1.34 in assay [1] (NPSR1, tracer 1μM); 3.27 in assay [2] (CHRM5, tracer 0.1μM); 2.82 in assay [2] (CHRM5, tracer 1μM).

On to `CN(CCC=C1c2ccccc2CCc2ccccc21)C(=O)CCOCCOCCOCCOCCNC(=O)CCc1ccc2n1[B-](F)(F)[N+]1=C(c3ccc[nH]3)C=CC1=C2` [Amitriptyline-e-2-NB590], for which the “NanoBRET Fold Response” value in assay [3] (tracer at 1μM) is listed as 1.24; in assay [2] (tracer at 1μM), 1.14.

Regarding `N#CN/C(=N\CCNC(=O)c1ccc(N)cc1)NCCCOc1cccc(CN2CCCCC2)c1` [Aminopotentidine (unmodified)], the “NanoBRET Fold Response” value in assay [3] (DRD3, other tracers/Aminopotentidine (unmodified), 0.1μM) is on record as 1.16; in assay [3] (DRD3, other tracers/Aminopotentidine (unmodified), 1μM) it was 1.64.

As for `Cc1nc2n(c(=O)c1CCN1CCC(c3noc4cc(F)ccc34)CC1)CCCC2OC(=O)NCCOCCOCCOCCOCCNC(=O)CCc1ccc2n1[B-](F)(F)[N+]1=C(c3ccc[nH]3)C=CC1=C2` (stereo not drawn) [Risperidone-2-NB590], the “NanoBRET Fold Response” value in assay [1] (NPSR1, tracer 0.1μM) stood at 1.00; in assay [1] (NPSR1, tracer 1μM) it was 0.90; in assay [2] (CHRM5, tracer 0.1μM) it was 1.07; in assay [2] (CHRM5, tracer 1μM) it was 0.95.
